Data: US5068325A, “4,5,7,8-tetrahydro-6H-thiazolo[5,4-d]azepines, their preparation and their use as pharmaceutical compositions” (priority 1988, dated 1991)

Key:
Type in all cases: binding
dopamine D2-receptors = dopamine D2-receptors (Rattus norvegicus, UniProt P61169); experiment: affinity for dopamine D2-receptors by displacement experiments with [3H]-spiperone (rat striatum membranes); settings: for Ki: [3H]-spiperone, high-affinity form of the dopamine receptor; for α2-IC50 / D2-Ki: relative affinity for dopamine-D2 receptors compared with α2-adrenoceptors, the higher, the higher the D2/α2 selectivity
alpha-2 receptors = target: T1, alpha-2 receptors (Rattus norvegicus, UniProt P22909); experiment: affinity for alpha-2 receptors by displacement experiments with [3H]-clonidine (rat cortex membranes); settings: read-out: α2-IC50
T1 sequence (P22909 1-465): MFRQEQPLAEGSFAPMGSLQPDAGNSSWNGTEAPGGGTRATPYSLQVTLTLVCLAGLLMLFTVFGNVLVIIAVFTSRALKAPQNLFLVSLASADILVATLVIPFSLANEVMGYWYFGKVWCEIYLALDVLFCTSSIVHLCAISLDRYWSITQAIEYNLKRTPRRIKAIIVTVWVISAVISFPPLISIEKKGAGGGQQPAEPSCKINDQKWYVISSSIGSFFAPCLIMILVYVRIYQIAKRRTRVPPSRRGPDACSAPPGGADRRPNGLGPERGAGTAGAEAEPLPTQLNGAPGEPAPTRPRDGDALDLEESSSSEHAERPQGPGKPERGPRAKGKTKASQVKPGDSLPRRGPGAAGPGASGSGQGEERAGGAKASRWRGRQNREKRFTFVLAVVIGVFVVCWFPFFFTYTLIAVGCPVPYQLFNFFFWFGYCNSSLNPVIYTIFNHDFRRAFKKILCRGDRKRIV

[1] = target: T2, serotonin-2(5-HT2)-receptors (Rattus norvegicus, UniProt P14842); experiment: affinity for serotonin-2 (5-HT2) receptors by displacement experiments with [3H]-spiperone (rat frontal cortex)
T2 construct: The frontal cortex was dissected out and placed in ice cold 0.32 M saccharose solution; from tissue; host or cells: rat frontal cortex homogenate (Chbb:Thom strain)
Description: Specific binding is obtained from total binding minus non-specific binding.
A male rat (Chbb:Thom strain, about 200 g) was decapitated. The brain was removed. The frontal cortex was dissected out and placed in ice cold 0.32 M saccharose solution; its moist weight was determined. It was homogenised in 10 times the volume (0.32 M) of saccharose solution for 1 minute at 800 rpm in a Potter S (made by Braun of Melsungen). The homogenised material was centrifuged for 10 minutes at 1000×g (=3,000 rpm with a rotor 8×38 ml) in a refrigerated centrifuge. The supernatant was decanted off and homogenised (Polytron, position 5, 1 minute); the sediment was discarded. 5 ml (=0.5 g moist weight) of the tissue suspension thus obtained were made up to 40 ml with buffer (50 mm tris-HCl; pH=7.7 at ambient temperature).
0.8 ml of the buffered homogenised tissue (=10 mg moist weight) were incubated with 0.1 ml of a solution of [^3 H]-spiperone (about 0.2 nmol/1 final concentration) and with 0.1 ml of a solution of the test substance (increasing concentration) for 15 minutes at 37° C. (triple measurement). Incubation was stopped by rapid filtering through a Whatman GF/B filter; rinsing was carried out 3 times, each time with 5 ml of ice cold buffer within a maximum of 10 seconds (Filter Prep Messrs. Ismatec). The radioactivity of the filters was determined by liquid scintillation measurement.
The specific binding is obtained from the total binding minus the non-specific binding. The averages of the triple measurements are entered in a system of coordinates as in 1.3. The IC50 value is the concentration which inhibits the specific binding of [^3 H]-spiperone by 50%.

dopamine D1-receptors = target: T3, dopamine D1-receptors (Rattus norvegicus, UniProt P18901); experiment: affinity for dopamine D1-receptors by displacement experiments with [3H]-Sch 23390
T3 construct: The striata were dissected out, weighed and homogenised in 25 volumes of tris buffer; from tissue; host or cells: rat striatum membranes (Chbb:Thom strain), prepared as for the D2 assay
Description: Male rats (of the Chbb:Thom strain weighing about 200 g) were killed by a blow to the back of the neck. The brains were removed and dissected on ice. The striata were dissected out, weighed and homogenised in 25 volumes of tris buffer (50 mM tris-HCl, 1 mM EDTA, 5 mM MgCl2 and 1 mM ascorbic acid) for 30 seconds in an Ultra-Turrax at maximum speed, followed by 10 cycles in a Potter-Elvehjem at 1400 rpm. The pellet obtained after centrifuging at 50,000×g at 4° C. for 15 minutes was again taken up in 25 ml of tris buffer and centrifuged under the above conditions. The supernatant was discarded and the pellet obtained was incubated in 25 ml of tris buffer at 37° C. for 30 minutes and then centrifuged again at 50,000×g at 4° C. for 15 minutes. Finally, the pellet obtained was mixed with tris buffer to obtain a homogenate dilution of 1:500 (based on the weight of the striata).
Displacement curves were obtained from the data using the TOPFIT programming package (G. Heinzel in "Pharmacokinetics During Drug Development: Data Analysis and Evaluation Techniques", G. Bozler and J. M. van Rossum Eds., G. Fischer Verlag, Stuttgart 1982, 207).
7. Determining the affinity for dopamine D1-receptors by displacement experiments with [^3 H1-Sch 23390
The membrane preparation and data analysis were carried out as described for determining the affinity for dopamine D2 - receptors.
1 ml aliquots of the membrane preparation were incubated for 1 hour at ambient temperature with 1 ml of a solution of 0.25 nM [^3 H]-Sch 23390 (2.44 TBq/mmol, Messrs. DuPont NEN) and with increasing concentrations of the test substance (10^-11 to 10^-4 M). Incubation was ended by the addition of 5 ml of ice cold tris buffer and filtration through Whatman GF/B filters. The filters were washed twice, each time with 5 ml of ice cold buffer. The radioactivity of the filters was determined by liquid scintillation measurement in Instagel(R) (Messrs. Canberra Packard).
The non-specific binding was determined in the presence of 10^-6 M (-)-butaclamol (Research Biochemicals Inc.).

T2 sequence (P14842 whole entry): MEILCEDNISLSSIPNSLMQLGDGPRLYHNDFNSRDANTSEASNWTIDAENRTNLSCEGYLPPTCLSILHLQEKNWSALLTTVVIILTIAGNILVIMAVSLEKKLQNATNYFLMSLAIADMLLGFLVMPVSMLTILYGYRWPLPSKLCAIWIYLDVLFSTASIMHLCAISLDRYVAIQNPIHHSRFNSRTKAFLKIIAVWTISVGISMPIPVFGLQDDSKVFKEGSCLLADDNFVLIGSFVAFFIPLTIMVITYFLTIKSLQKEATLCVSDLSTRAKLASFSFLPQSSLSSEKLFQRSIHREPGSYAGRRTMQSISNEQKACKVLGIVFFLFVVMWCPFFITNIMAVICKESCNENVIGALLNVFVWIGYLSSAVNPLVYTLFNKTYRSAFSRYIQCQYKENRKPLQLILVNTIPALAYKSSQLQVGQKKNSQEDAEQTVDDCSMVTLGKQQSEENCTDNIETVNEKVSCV
dopamine D2-receptors, sequence (P61169 whole entry): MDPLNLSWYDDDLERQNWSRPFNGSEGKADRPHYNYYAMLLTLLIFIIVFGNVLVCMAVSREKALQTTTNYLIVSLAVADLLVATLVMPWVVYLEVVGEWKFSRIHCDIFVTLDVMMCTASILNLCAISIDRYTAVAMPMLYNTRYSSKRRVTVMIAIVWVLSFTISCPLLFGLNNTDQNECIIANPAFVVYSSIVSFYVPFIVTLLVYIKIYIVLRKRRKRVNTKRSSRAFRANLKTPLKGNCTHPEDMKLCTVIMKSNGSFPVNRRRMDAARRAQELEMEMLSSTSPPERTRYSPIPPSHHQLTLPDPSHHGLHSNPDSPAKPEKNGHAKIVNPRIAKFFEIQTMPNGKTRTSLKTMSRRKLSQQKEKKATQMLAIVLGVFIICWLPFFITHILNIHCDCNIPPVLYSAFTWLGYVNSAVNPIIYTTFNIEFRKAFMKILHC
T3 sequence (P18901 whole entry): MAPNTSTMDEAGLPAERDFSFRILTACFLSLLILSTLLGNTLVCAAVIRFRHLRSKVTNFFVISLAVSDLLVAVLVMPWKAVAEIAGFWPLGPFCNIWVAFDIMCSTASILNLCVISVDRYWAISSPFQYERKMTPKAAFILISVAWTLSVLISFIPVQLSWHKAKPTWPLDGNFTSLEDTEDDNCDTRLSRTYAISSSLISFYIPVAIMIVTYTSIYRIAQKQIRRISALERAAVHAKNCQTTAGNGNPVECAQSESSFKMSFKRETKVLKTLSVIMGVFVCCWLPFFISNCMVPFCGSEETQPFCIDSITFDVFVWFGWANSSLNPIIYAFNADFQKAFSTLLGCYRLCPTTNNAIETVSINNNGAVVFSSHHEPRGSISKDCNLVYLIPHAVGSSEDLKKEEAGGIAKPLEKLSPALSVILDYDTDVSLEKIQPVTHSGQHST

Structure (SMILES)	Ki (dopamine D2-receptors) [µM]	α2-IC50 / D2-Ki (dopamine D2-receptors)	IC50 (alpha-2 receptors) [µM]	Ki [1] [µM]	Ki (dopamine D1-receptors) [µM]
C=CCN1CCc2nc(N)sc2CC1 [Compound A, reference compound]	0.005	4.8	0.024	20.2	12
Nc1nc2c(s1)CCN(Cc1ccc(Cl)cc1)CC2 [Compound B, reference compound]	0.013	31.5	0.41	18.4	11
Nc1nc2c(s1)CCN(CC=Cc1cccc3ccccc13)CC2 [Example 4t, 2-Amino-6-(3-(1-naphthyl)allyl)-4,5,7,8-tetrahydro-6H-thiazolo[5,4-d]azepine]	0.0031	148	0.46	0.026	0.21
Nc1nc2c(s1)CCN(CC=Cc1cccc(OCc3ccccc3)c1)CC2 [Example 4y, 2-Amino-6-(3-(3-benzyloxy-phenyl)allyl)-4,5,7,8-tetrahydro-6H-thiazolo[5,4-d]azepine]	0.00073	410	0.3	0.47	1.5
Nc1nc2c(s1)CCN(CC=Cc1nccc3ccccc13)CC2 [Example 7a, 2-Amino-6-(3-(1-isoquinolinyl)allyl)-4,5,7,8-tetrahydro-6H-thiazolo[5,4-d]azepine]	0.00092	3370	3.1	0.12	0.18
Nc1nc2c(s1)CCN(CC=Cc1ccccc1N1CCCCC1)CC2 [Example 11p, 2-Amino-6-(3-(2-(1-piperidino)phenyl)-2-propen-1-yl)-4,5,7,8-tetrahydro-6H-thiazolo[5,4-d]azepine]	0.0099	303	3	0.558	0.92
N#Cc1ccc(C=CCN2CCc3nc(N)sc3CC2)cc1 [Example 14b, 2-Amino-6-(3-(4-cyano-phenyl)allyl)-4,5,7,8-tetrahydro-6H-thiazolo[5,4-d]azepine]	0.0026	192	0.5	15	
Nc1nc2c(s1)CCN(CC=Cc1cc3ccccc3cn1)CC2 [Example 24a, 2-Amino-6-(3-(3-isoquinolinyl)allyl)-4,5,7,8-tetrahydro-6H-thiazolo[5,4-d]azepine]	0.0017	529	0.9	0.56	3
